Consider one compound from patent US9788549B2, “Broad spectrum disinfectant” (DI[…] LLC, priority 2014, dated 2017).

The conditions of data set [1]: solution has the proper amount of sodium polyphosphate.
For data set [2] the following is noted: atmospheric pressure, 20° C.; cited from earlier work.

Turning to `[O][Cl+][O-]` [Chlorine dioxide], the “stability of ClO2 in solution” value in data set [1] is reported as “remain stable for years”. Also, the solubility in water result in data set [2] is “approximately 70 g/l”.
